pIC50: −log10 of the molar value.
molecular target: T1, TrkA kinase (Homo sapiens, UniProt P04629); experiment: In vitro TrkA inhibitory activity using TR-FRET assay; assay type: biochemical; settings: 5 ng TrkA, 500 μM ATP, values given as bins, read-out: TrkA inhibition in-vitro IC50
T1 construct: purchased Upstate, USA
In short: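 TrkA kinase (5 ng) was preincubated 30 min at 20-35° C. with compound (1% DMSO final), then 40 nM ULight poly GT and 500 μM ATP were added for 30 min before an EDTA stop. Phosphorylation was detected by Eu anti-phosphotyrosine TR-FRET (ex 340, em 615/665 nm), and IC50 came from sigmoidal fits of 1/3 serial dilutions.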

T1 sequence (P04629 33-796): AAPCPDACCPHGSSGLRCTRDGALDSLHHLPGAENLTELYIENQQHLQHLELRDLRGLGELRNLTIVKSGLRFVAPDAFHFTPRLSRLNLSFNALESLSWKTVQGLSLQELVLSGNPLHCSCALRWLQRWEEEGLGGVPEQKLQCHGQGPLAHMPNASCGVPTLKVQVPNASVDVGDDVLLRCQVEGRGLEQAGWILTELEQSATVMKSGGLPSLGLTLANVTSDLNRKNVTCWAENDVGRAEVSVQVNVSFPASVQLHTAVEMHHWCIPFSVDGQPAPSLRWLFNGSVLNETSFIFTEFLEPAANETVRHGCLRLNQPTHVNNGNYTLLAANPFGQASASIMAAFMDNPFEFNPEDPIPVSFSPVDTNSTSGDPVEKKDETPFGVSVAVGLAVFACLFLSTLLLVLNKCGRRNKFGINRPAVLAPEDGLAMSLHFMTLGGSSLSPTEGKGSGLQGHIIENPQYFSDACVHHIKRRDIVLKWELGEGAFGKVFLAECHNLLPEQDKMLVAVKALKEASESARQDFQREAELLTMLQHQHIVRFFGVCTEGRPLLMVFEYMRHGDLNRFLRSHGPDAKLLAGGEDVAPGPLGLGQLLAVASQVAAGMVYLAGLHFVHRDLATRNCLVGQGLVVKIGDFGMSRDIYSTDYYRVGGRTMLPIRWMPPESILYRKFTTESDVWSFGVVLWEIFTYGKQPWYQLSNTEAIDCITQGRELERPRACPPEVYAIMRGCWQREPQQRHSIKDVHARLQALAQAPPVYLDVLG

CN(c1nncs1)S(=O)(=O)NC(=O)c1cnc2ccc(N3C[C@@H](F)C[C@@H]3c3cc(F)ccc3OC3CCOCC3)cn12 [Example 97, 6-((2R,4S)-4-fluoro-2-(5-fluoro-2-((tetrahydro-2H-pyran-4-yl)oxy)phenyl)pyrrolidin-1-yl)-N—(N-methyl-N-(1,3,4-thiadiazol-2-yl)sulfamoyl)imidazo[1,2-a]pyridine-3-carboxamide] and CN(c1nccs1)S(=O)(=O)NC(=O)c1cnc2ccc(N3C[C@@H](F)C[C@@H]3c3cc(F)ccc3OC3CCOCC3)cn12 [Example 100, 6-((2R,4S)-4-fluoro-2-(5-fluoro-2-((tetrahydro-2H-pyran-4-yl)oxy)phenyl)pyrrolidin-1-yl)-N—(N-methyl-N-(thiazol-2-yl)sulfamoyl)imidazo[1,2-a]pyridine-3-carboxamide] cannot be ordered by pIC50: ≥ 7.30 for the first, ≥ 7.30 for the second.

Cc1nnc(N(C)S(=O)(=O)NC(=O)c2cnc3ccc(N4C[C@@H](F)C[C@@H]4c4cc(F)ccc4OC4CCOCC4)cn23)s1 [Example 98, 6-((2R,4S)-4-fluoro-2-(5-fluoro-2-((tetrahydro-2H-pyran-4-yl)oxy)phenyl)pyrrolidin-1-yl)-N—(N-methyl-N-(5-methyl-1,3,4-thiadiazol-2-yl)sulfamoyl)imidazo[1,2-a]pyridine-3-carboxamide] and CN(CCF)S(=O)(=O)NC(=O)c1cnc2ccc(N3C[C@@H](F)C[C@@H]3c3cc(F)ccc3OC3CCOCC3)cn12 [Example 99, 6-((2R,4S)-4-fluoro-2-(5-fluoro-2-((tetrahydro-2H-pyran-4-yl)oxy)phenyl)pyrrolidin-1-yl)-N—(N-(2-fluoroethyl)-N-methylsulfamoyl)imidazo[1,2-a]pyridine-3-carboxamide] cannot be ordered by pIC50: 7.00 to 7.30 for the first, ≥ 7.30 for the second.

CCCN(C)S(=O)(=O)NC(=O)c1cnc2ccc(N3C[C@@H](F)C[C@@H]3c3cc(F)ccc3O[C@@H]3CCOC3)cn12 [Example 101, 6-((2R,4S)-4-fluoro-2-(5-fluoro-2-(((R)-tetrahydrofuran-3-yl)oxy)phenyl)pyrrolidin-1-yl)-N—(N-methyl-N-propylsulfamoyl)imidazo[1,2-a]pyridine-3-carboxamide] and CCCN(C)S(=O)(=O)NC(=O)c1cnc2ccc(N3CCC[C@@H]3c3cc(F)ccc3O[C@@H]3CCOC3)cn12 [Example 107, 6-((R)-2-(5-fluoro-2-(((R)-tetrahydrofuran-3-yl)oxy)phenyl)pyrrolidin-1-yl)-N—(N-methyl-N-propylsulfamoyl)imidazo[1,2-a]pyridine-3-carboxamide] cannot be ordered by pIC50: ≥ 7.30 for the first, ≥ 7.30 for the second.

CCN(CCF)S(=O)(=O)NC(=O)c1cnc2ccc(N3C[C@@H](F)C[C@@H]3c3cc(F)ccc3OC3CCOCC3)cn12 [Example 102, N—(N-ethyl-N-(2-fluoroethyl)sulfamoyl)-6-((2R,4S)-4-fluoro-2-(5-fluoro-2-((tetrahydro-2H-pyran-4-yl)oxy)phenyl)pyrrolidin-1-yl)imidazo[1,2-a]pyridine-3-carboxamide] and CN(CC(C)(C)F)S(=O)(=O)NC(=O)c1cnc2ccc(N3C[C@@H](F)C[C@@H]3c3cc(F)ccc3OC3CCOCC3)cn12 [Example 110, 6-((2R,4S)-4-fluoro-2-(5-fluoro-2-((tetrahydro-2H-pyran-4-yl)oxy)phenyl)pyrrolidin-1-yl)-N—(N-(2-fluoro-2-methylpropyl)-N-methylsulfamoyl)imidazo[1,2-a]pyridine-3-carboxamide] cannot be ordered by pIC50: ≥ 7.30 for the first, ≥ 7.30 for the second.

CN(c1ccccn1)S(=O)(=O)NC(=O)c1cnc2ccc(N3C[C@@H](F)C[C@@H]3c3cc(F)ccc3O[C@@H]3CCOC3)cn12 [Example 103, 6-((2R,4S)-4-fluoro-2-(5-fluoro-2-(((R)-tetrahydrofuran-3-yl)oxy)phenyl)pyrrolidin-1-yl)-N—(N-methyl-N-(pyridin-2-yl)sulfamoyl)imidazo[1,2-a]pyridine-3-carboxamide] and CN(c1ccccn1)S(=O)(=O)NC(=O)c1cnc2ccc(N3C[C@@H](F)C[C@@H]3c3cc(F)ccc3OC3CCOCC3)cn12 [Example 104, 6-((2R,4S)-4-fluoro-2-(5-fluoro-2-((tetrahydro-2H-pyran-4-yl)oxy)phenyl)pyrrolidin-1-yl)-N—(N-methyl-N-(pyridin-2-yl)sulfamoyl)imidazo[1,2-a]pyridine-3-carboxamide] cannot be ordered by pIC50: ≥ 7.30 for the first, ≥ 7.30 for the second.

COCCN(C)S(=O)(=O)NC(=O)c1cnc2ccc(N3CCC[C@@H]3c3cc(F)ccc3O[C@@H]3CCOC3)cn12 [Example 105, 6-((R)-2-(5-fluoro-2-(((R)-tetrahydrofuran-3-yl)oxy)phenyl)pyrrolidin-1-yl)-N—(N-(2-methoxyethyl)-N-methylsulfamoyl)imidazo[1,2-a]pyridine-3-carboxamide] and CN(C)S(=O)(=O)NC(=O)c1cnc2ccc(N3CCC[C@@H]3c3cc(F)ccc3O[C@@H]3CCOC3)cn12 [Example 106, N—(N,N-dimethylsulfamoyl)-6-((R)-2-(5-fluoro-2-(((R)-tetrahydrofuran-3-yl)oxy)phenyl)pyrrolidin-1-yl)imidazo[1,2-a]pyridine-3-carboxamide] cannot be ordered by pIC50: ≥ 7.30 for the first, ≥ 7.30 for the second.

In the case of CN(C1CC1)S(=O)(=O)NC(=O)c1cnc2ccc(N3C[C@@H](F)C[C@@H]3c3cc(F)ccc3OC3CCOCC3)cn12 [Example 108, N—(N-cyclopropyl-N-methylsulfamoyl)-6-((2R,4S)-4-fluoro-2-(5-fluoro-2-((tetrahydro-2H-pyran-4-yl)oxy)phenyl)pyrrolidin-1-yl)imidazo[1,2-a]pyridine-3-carboxamide], the pIC50 was ≥ 7.30.
